Experimental data reported in patent US9873693B2 (Sunesis Pharmaceuticals, Inc., priority 2006, dated 2018).
Where two headings read alike, the source gives them in different places.

Tests used:
phosphorylated PDK1 = phosphorylated PDK1 (Homo sapiens (Human), UniProt O15530); assay: PDK1 kinase assay (coupled PDK1/AKT/FAM-crosstide, IMAP); format: biochemical; conditions: 0.5 nM phosphorylated PDK1, 24 μM ATP; read-out: Inhibition of phospo-PDK1 in vitro IC50
Phospho-T308 Akt = Phospho-T308 Akt detection using immunoblot (western blot) in PC-3 cells; format: cell-based; conditions: for Reduction of Cellular Levels of Akt p308 By Western: 2 hour incubation, concentration not given in Table 2; for inhibition at 5 µM / inhibition at 2 µM: Homo sapiens, read-out: Percent Inhibition of phospho-Akt (308) By Western
Procedure: A Phospho-T308 Akt detection using immunoblot (western blot) analysis was performed as described below.
PC-3 prostate cells were plated in a 6 well plate in F12K media (Invitrogen, Carlsbad, Calif.) plus 10% FBS (Invitrogen) and placed in incubator overnight. The stock of compound A was a 50 mM solution in DMSO. 1000× dilutions of the compound were made in DMSO. The 1000× dilutions include, 35 mM, 25 mM, 15 mM, 10 mM, 7 mM, 5 mM, and 1 mM. 1 μl of the 1000× dilutions was added to 1 ml F12K media without serum for final concentrations of […]. 1 μl of DMSO was added to 1 ml media with no serum for a control. The 1 ml DMSO or compound plus media was then added to the cells. Following a 2 hour incubation at 37° C., cells were harvested and washed in PBS and subjected to centrifugation at 3,300 rpm for 5 minutes. Cells were lysed in 100 μl of Bio Rad Bioplex buffer containing protease inhibitors (BioRad, Hercules, Calif.) for 30 minutes on ice followed by centrifugation at 13,000 rpm for 5 minutes. The protein content of the supernatant was assayed using DC Protein Assay (BioRad). 25 μl of protein was added to 4× sample buffer (Invitrogen) and sample reducer (Invitrogen) and run on a 4-12% NuPage gel (Invitrogen). Proteins were then transferred to nitrocellulose (Invitrogen). The membrane was blocked in Tris-buffered saline (Sigma, St. Louis, Mo.) plus 0.1% Tween (Sigma) (T-TBS) plus 5% blotting grade milk (BioRad) for 60 minutes. Membranes were then incubated in T-TBS plus 5% BSA (Sigma) plus 1:1000 of anti-phospho akt (Thr 308) (Cell Signaling Technology, Beverly, Mass.) overnight at 4° C. Membranes were washed in T-TBS then incubated in 1:2000 of anti-rabbit-HRP (Cell Signaling) in TTBS plus 5% milk. Membranes were washed again and proteins were visualized with Super Signal West Pico (Pierce, Rockford, Ill.) and using Kodak BioMax MR film (Kodak, Rochester, N.Y.).
Phospho-akt 308 protein bands on the film were quantified using densitometry. An Alpha Imager (Alpha Innotech Corp, San Leandro, Calif.) using AlphaEase FC software version 4.1.0 (Alpha Innotech Corp.) was used to quantitate protein bands. Briefly, a rectangle of equal size was placed around each protein band as well as a background spot on the film. The densitometry values (IDV=Integrated Density Value) obtained for the background spot was then subtracted from the values obtained for the protein bands. These values were used to obtain an EC50 value using non-linear regression analysis in GraphPad Prism Version 4.00 (Graph Pad Prism, San Diego, Calif.). Percent decrease in expression of phosphoh-akt 308 were also measured specifically at 2 μM and 5 μM levels of inhibitor.

phospho-akt (Thr308) = phospho-akt (Thr308) MSD ELISA in PC-3 cells; format: cell-based; conditions: Homo sapiens, PC-3 cells; for EC50: PC-3, 2 h, 2 hours, no serum; for inhibition at 1 µM / inhibition at 10 µM: read-out: Percent Inhibition of phospho-Akt (308) By MSD ELISA
In short: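 Read-out is MSD electrochemiluminescence after lysate capture overnight at 4 degrees and 1 hr RT detection-antibody step. Before lysis, overnight-plated PC-3 cells received three-fold serial dilutions of inhibitor in serum-free medium, with DMSO-only high controls.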

dephosphorylated PDK1 = dephosphorylated PDK1 (Homo sapiens (Human), UniProt O15530); assay: PDK1 kinase assay (coupled PDK1/AKT/FAM-crosstide, IMAP); format: biochemical; conditions: 25 nM un-phosphorylated PDK1, 24 μM ATP; read-out: Inhibition of dephospo-PDK1 in vitro IC50
In short: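 The FAM-crosstide phosphorylation readout was IMAP polarization (ex 485/em 530 nm, 2 h binding), with 4-parameter fits of ΔmP data. The reaction ran 30 min at 25 °C with 24 μM ATP, and contained 25 nM phosphatase-treated PDK1 (aa 51–360) plus 30 nM unphosphorylated AKT2-PIFtide and 100 nM substrate. Buffer was 10 mM Tris pH 7.2, 10 mM MgCl2, 0.01% Triton X-100 and 1 mM DTT.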

[1] = read-out: Inhibition of P308 Akt in cells using MSD EC50
[2] = read-out: Reduction of Cellular Levels of Akt p308 By MSD ELISA (EC50 μM)

Sequence of dephosphorylated PDK1 (O15530 51-360): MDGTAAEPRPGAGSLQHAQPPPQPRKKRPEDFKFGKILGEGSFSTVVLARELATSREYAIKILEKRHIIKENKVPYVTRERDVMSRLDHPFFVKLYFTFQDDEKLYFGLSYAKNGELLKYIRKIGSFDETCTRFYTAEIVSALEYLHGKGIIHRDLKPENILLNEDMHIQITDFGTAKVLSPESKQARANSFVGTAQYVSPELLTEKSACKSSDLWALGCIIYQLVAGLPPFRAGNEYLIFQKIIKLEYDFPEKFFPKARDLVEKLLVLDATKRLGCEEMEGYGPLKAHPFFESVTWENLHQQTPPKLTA
Sequence of phosphorylated PDK1 (O15530 51-360): as above

Row | Structure (SMILES) | IC50 (phosphorylated PDK1) [nM] | Reduction of Cellular Levels of Akt p308 By Western (Phospho-T308 Akt) | inhibition at 5 µM (Phospho-T308 Akt) [%] | EC50 (phospho-akt (Thr308); [1]) [µM] | inhibition at 1 µM (phospho-akt (Thr308)) [%] | inhibition at 10 µM (phospho-akt (Thr308)) [%] | IC50 (dephosphorylated PDK1) [nM] | EC50 (phospho-akt (Thr308); [2]) [µM] | inhibition at 2 µM (Phospho-T308 Akt) [%]
1 | O=C(NCc1noc(-c2c[nH]c3ncccc23)n1)c1cc(Cl)cn(Cc2cccc(F)c2)c1=O [Cpd 310] | < 500 | bb (inhibition of from 25% to 75%) | 25 to 75 | 1 to 5 | 25 to 75 | 25 to 75 | < 500 |  | 
2 | O=C(NCc1cnc(-c2c[nH]c3ncccc23)s1)c1cccn(Cc2ccc(F)c(F)c2)c1=O [Cpd 134] | < 500 | bbb (inhibition of more than 75%) | > 75 |  | < 25 | > 75 | < 500 |  | 
3 | COC(=O)[C@@H](COc1ccc2[nH]c(=O)[nH]c2c1)NC(=O)c1cccn(Cc2ccc(F)c(F)c2)c1=O [Cpd 293] | < 500 | bb (inhibition of from 25% to 75%) | 25 to 75 |  | 25 to 75 | > 75 | < 500 |  | 
4 | C[C@@H](c1ccc(Cl)cc1)n1cccc(C(=O)NCc2noc(-c3c[nH]c4ncccc34)n2)c1=O [Cpd 300] | < 500 | bbb (inhibition of more than 75%) | > 75 | 1 to 5 | 25 to 75 | > 75 | < 500 |  | 
5 | O=C(NCc1cccc(-c2ccc3n[nH]c(=O)n3c2)c1)c1cccn(Cc2ccc(F)c(F)c2)c1=O [Cpd 216] | 500 to 10000 | bb (inhibition of from 25% to 75%) | 25 to 75 |  |  |  | < 500 |  | 
6 | NC[C@@H](NC(=O)c1cccn(Cc2ccc(F)c(F)c2)c1=O)c1nc(-c2c[nH]c3ncccc23)cs1 [Cpd 296] | < 500 | bb (inhibition of from 25% to 75%) | 25 to 75 | 1 to 5 | < 25 | > 75 | < 500 |  | 
7 | O=C(NCc1cccc(-c2c[nH]c3ncc(CO)cc23)c1)c1cccn(Cc2ccc(F)c(F)c2)c1=O [Cpd 225] |  | bbb (inhibition of more than 75%) | > 75 |  |  |  | < 500 | < 1 | 
8 | O=C(O)CC[C@@H](NC(=O)c1cccn(Cc2ccc(F)c(F)c2)c1=O)c1nc(-c2c[nH]c3ncccc23)co1 [Cpd 307] | < 500 | b (inhibition of less 25%) | < 25 |  | < 25 | < 25 | < 500 |  | 
9 | O=C(NCc1cc(-c2c[nH]c3ncccc23)cs1)c1cccn(Cc2ccc(F)c(F)c2)c1=O [Cpd 17] | < 500 | bbb (inhibition of more than 75%) |  | 1 to 5 | 25 to 75 | > 75 |  |  | > 75
10 | O=C(NC1CCCc2ccc(-c3c[nH]c4ncccc34)cc21)c1cccn(Cc2ccc(F)c(F)c2)c1=O (stereo not shown) [Cpd 16] | < 500 | bb (inhibition of from 25% to 75%) |  | > 5 |  |  | < 500 | > 5 | < 25
11 | O=C(NCc1cccc(-c2c[nH]c3ncc(F)cc23)c1)c1cccn(Cc2ccc(F)c(F)c2)c1=O [Cpd 10] | < 500 | bbb (inhibition of more than 75%) | > 75 | 1 to 5 | 25 to 75 | > 75 |  |  | 
12 | O=C(NCc1noc(-c2c[nH]c3ncccc23)n1)c1cccn(Cc2ccc(F)cc2)c1=O [Cpd 303] | < 500 | bbb (inhibition of more than 75%) | > 75 |  | < 25 | < 25 | < 500 |  | 
13 | COC(=O)c1cc(-c2cccc(CNC(=O)c3cccn(Cc4ccc(F)c(F)c4)c3=O)c2)c[nH]1 [Cpd 230] | < 500 | b (inhibition of less 25%) | < 25 |  | 25 to 75 | > 75 | < 500 |  | 
14 | O=C(NCc1noc(-c2c[nH]c3ncccc23)n1)c1cccn(Cc2cccc(F)c2)c1=O [Cpd 302] | < 500 | bbb (inhibition of more than 75%) | > 75 |  | < 25 | 25 to 75 | < 500 |  | 
15 | NC(=O)C[C@@H](NC(=O)c1cccn(Cc2ccc(F)c(F)c2)c1=O)c1nnc(-c2c[nH]c3ncccc23)o1 [Cpd 289] |  | b (inhibition of less 25%) | < 25 |  | < 25 | < 25 | < 500 |  | 
16 | O=C(NCc1ncc(-c2c[nH]c3ncccc23)s1)c1cccn(Cc2ccc(F)c(F)c2)c1=O [Cpd 132] | < 500 | bbb (inhibition of more than 75%) | > 75 | < 1 | 25 to 75 | > 75 |  |  | 
17 | CNC(=O)C[C@@H](NC(=O)c1cccn(Cc2ccc(F)c(F)c2)c1=O)c1nnc(-c2c[nH]c3ncccc23)o1 [Cpd 299] | < 500 | bb (inhibition of from 25% to 75%) | 25 to 75 |  | < 25 | < 25 |  |  | 
18 | COC(=O)C[C@H](NC(=O)c1cccn(Cc2ccc(F)c(F)c2)c1=O)c1nnc(-c2c[nH]c3ncccc23)o1 [Cpd 291] | < 500 | bbb (inhibition of more than 75%) | > 75 | < 1 | 25 to 75 | > 75 |  |  | 
19 | O=C(NCc1cccc(-c2ccc3nccn3c2)c1)c1cccn(Cc2ccc(F)c(F)c2)c1=O [Cpd 9] | < 500 | bbb (inhibition of more than 75%) |  |  |  |  | < 500 |  | 
20 | O=C(NCc1ccc(-c2c[nH]c3ncc(CO)cc23)s1)c1cccn(Cc2ccc(F)c(F)c2)c1=O [Cpd 12] | < 500 | bb (inhibition of from 25% to 75%) |  | < 1 | 25 to 75 | > 75 |  |  | 25 to 75
21 | O=C(NCc1noc(-c2c[nH]c3ncccc23)n1)c1cccn(Cc2cccc(Cl)c2)c1=O [Cpd 294] | < 500 | bb (inhibition of from 25% to 75%) | 25 to 75 |  |  |  | < 500 |  | 
